Experimental data reported in patent US10828301B2, “2,4-pyrimidinediamine compounds and their uses” (Rigel Pharmaceuticals, Inc, priority 2002, dated 2020).

Assays:
[1] = system: cultured human mast cells (CHMC); test: CHMC high cell density IgE activation: degranulation (hexos, tryptase, histamine), leukotriene (LTC4) and cytokine (TNFalpha, IL-13) assays; format: cell-based; conditions: anti-IgE activation
Method in brief: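 IgE-sensitized CHMC at 1-2×10^6 cells/ml in MT buffer were pretreated with compound for 1 h at 37 °C (0.5% DMSO final), then stimulated with anti-IgE for 1 h. Tryptase was measured in 1:500-diluted supernatant. Pellets were re-incubated for 7 h with compound in CM media, and supernatants were assayed by ELISA.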

[2] = system: basophils in whole human peripheral blood; test: Basophil IgE activation: histamine release assay; format: cell-based; conditions: Homo sapiens, anti-IgE activation
Method in brief: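 Dextran-sedimented whole blood from dust-mite-allergic human donors, resuspended in MT-buffer with 0.5% DMSO and preincubated with 8 compound concentrations in triplicate. Cells stimulated 30 min at 37 °C. Histamine released into the supernatant measured by ELISA.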

[3] = system: basophils in whole human peripheral blood; test: Basophil ionomycin activation: histamine release assay; format: cell-based; conditions: Homo sapiens
Procedure: Assays for ionomycin-induced basophil cell degranulation were carried out as described for the Basophil IgE or Dustmite Activation Assay (Section 6.4.6, supra), with the exception that following incubation with compound, cells were stimulated with 20 μl of 2 μM ionomycin.

[4] = in vitro chromosomal aberration assay; format: cell-based
[5] = format: in vivo; conditions: rat, oral doses of 50, 150 and 300 mg/kg given for 32 days
[6] = Oral bioavailability / pharmacokinetics in rats; format: in vivo; conditions: rat, in vivo
Procedure: Over 50 2,4-pyrimidinediamine compounds of the invention were tested for oral bioavailability. For the study, compounds were dissolved in various vehicles (e.g. PEG 400 solution and CMC suspension) for intravenous and oral dosing in the rats. Following administration of the drug, plasma samples were obtained and extracted. The plasma concentrations of the compounds were determined by high performance liquid chromatography/tandem mass spectrometry (LC/MS/MS) methods. Pharmacokinetic analyses were performed based on the plasma concentration data. The pharmacokinetic parameters of interest include Clearance (CL), Volume of distribution at steady-state (Vss), terminal half-life (t1/2), and oral bioavailability (% F).

[7] = system: cultured human mast cells (CHMC); test: CHMC low cell density IgE activation: tryptase and LTC4 assays; format: cell-based; conditions: Homo sapiens, Mast cell, Low Density CHMC, anti-IgE activation, tryptase readout; read-out: CHMC anti-IgE Tryptase
Method in brief: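 Degranulation measured after 30 min anti-IgE challenge at 37° C of CHMC plated at 1000-1500 cells/well following 1 h preincubation. Readouts: LTC4 by ELISA on donor-specific diluted supernatants, and tryptase activity from a 30 min room-temperature substrate reaction.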

[8] = system: cultured human mast cells (CHMC); test: CHMC low cell density ionomycin activation: tryptase assay; format: cell-based; conditions: Homo sapiens, Mast cell, Low Density CHMC, ionomycin activation, tryptase readout; read-out: CHMC Ionomycin Tryptase
[9] = system: Jurkat cells; test: Jurkat toxicity: Cell Titer Glo assay; format: cell-based; conditions: Homo sapiens, 18 hours
Procedure: Seed 50 μl cells (1×10^6/ml) into each well containing 50 μl compound. […] Shake plates for 1 minute to mix cells and compound. Incubate plates at 37° C. […] Next day, harvest 50 μl cells from each well, add to 50 μl Cell Titer Glo reagent ([…]). Shake plates for 1 minute. Read on luminometer.

[10] = system: B-cell line BJAB; test: BJAB toxicity: Cell Titer Glo assay; format: cell-based; conditions: Homo sapiens, 18 hours
Procedure: Seed 50 μl cells (1×10^6/ml) into each well containing 50 μl compound. The final vehicle concentration is 0.5% DMSO, 1.5% MeOH. Shake plates for 1 minute to mix cells and compound. Incubate plates at 37° C. (5% CO2) for 18 hours. Next day, harvest 50 μl cells from each well, add to 50 μl Cell Titer Glo reagent ([…]). Shake plates for 1 minute. Read on luminometer.

[11] = IL-13, read-out: CHMC high density IL-13
[12] = LTC4, read-out: CHMC high density LTC4
[13] = TNF-alpha, read-out: CHMC high density TNF-alpha
[14] = hexosaminidase release, read-out: CHMC high density hexos
[15] = histamine release, read-out: CHMC high density histamine
[16] = tryptase release, read-out: CHMC high density tryptase

Nc1cccc(Nc2ncc(F)c(Nc3cccc(N)c3)n2)c1 [Compound R921302, N2,N4-Bis(3-aminophenyl)-5-fluoro-2,4-pyrimidinediamine]
IC50 [1, 11]: 1670 nM
IC50 [1, 12]: 514 nM
IC50 [1, 13]: 1170 nM
IC50 [1, 14]: 682 nM
IC50 [1, 15]: 1590 nM
IC50 [1, 16]: 795 nM
IC50 [2]: 190 nM
IC50 [3]: > 10000 nM
clastogenic potential [4]: not clastogenic
tolerability [5]: well tolerated
metabolic stability in pharmacokinetics studies [6]: most metabolically stable compound

Cc1cc(Nc2ncc(F)c(Nc3cccc(O)c3)n2)cc(Cl)c1O [Compound R940233, N2-(3-Chloro-4-hydroxy-5-methylphenyl)-5-fluoro-N4-(3-hydroxyphenyl)-2,4-pyrimidinediamine]
IC50 [7]: 132 nM
IC50 [1, 11]: 1780 nM
IC50 [1, 12]: 118 nM
IC50 [1, 13]: 2250 nM
IC50 [1, 14]: 577 nM
IC50 [1, 15]: 586 nM
IC50 [1, 16]: 642 nM
IC50 [8]: > 10000 nM
IC50 [9]: > 4330 nM
IC50 [10]: > 4330 nM
